Test results: ChEMBL document CHEMBL1201862, “PubChem BioAssay data set” (2004)
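The compound was tested at five concentrations on cells cultured in 96-well plates, with a 48-hour exposure period. Abbreviation: GI50, concentration required for 50% inhibition of growth.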 The source made the active and inactive calls. Cut-off read from the data, not from the text of the source: active = GI50 up to about 1.1 µM and inactive = higher.

Tests used:
Assay in all cases: NCI-60 cell line screen, 48 h
786-0 = tested on: 786-0
A549 = tested on: A549
ACHN = tested on: ACHN
BT-549 = tested on: BT-549
CAKI-1 = tested on: CAKI-1
COLO 205 = tested on: COLO 205
DU-145 = tested on: DU-145
EKVX = tested on: EKVX
HCC 2998 = tested on: HCC 2998
HCT-116 = tested on: HCT-116
HCT-15 = tested on: HCT-15
HL-60 = tested on: HL-60
HOP-62 = tested on: HOP-62
HOP-92 = tested on: HOP-92
HT-29 = tested on: HT-29
Hs-578T = tested on: Hs-578T
IGROV-1 = tested on: IGROV-1
K562 = tested on: K562
KM12 = tested on: KM12
LOX IMVI = tested on: LOX IMVI
M14 = tested on: M14
MCF7 = tested on: MCF7
MDA-MB-231 = tested on: MDA-MB-231
MDA-MB-435 = tested on: MDA-MB-435
MOLT-4 = tested on: MOLT-4
Malme-3M = tested on: Malme-3M
NCI-H226 = tested on: NCI-H226
NCI-H23 = tested on: NCI-H23
NCI-H460 = tested on: NCI-H460
NCI-H522 = tested on: NCI-H522
NCI/ADR-RES = tested on: NCI/ADR-RES
OVCAR-3 = tested on: OVCAR-3
OVCAR-4 = tested on: OVCAR-4
OVCAR-5 = tested on: OVCAR-5
OVCAR-8 = tested on: OVCAR-8
PC-3 = tested on: PC-3
RPMI-8226 = tested on: RPMI-8226
RXF 393 = tested on: RXF 393
SF-268 = tested on: SF-268
SF-295 = tested on: SF-295
SF-539 = tested on: SF-539
SK-MEL-28 = tested on: SK-MEL-28
SK-MEL-2 = tested on: SK-MEL-2
SK-OV-3 = tested on: SK-OV-3
SN12C = tested on: SN12C
SNB-19 = tested on: SNB-19
SNB-75 = tested on: SNB-75
SR = tested on: SR
T47D = tested on: T47D
TK-10 = tested on: TK-10
U-251 = tested on: U-251
UACC-257 = tested on: UACC-257
UACC-62 = tested on: UACC-62
UO-31 = tested on: UO-31
A498 = tested on: A498
CCRF-CEM = tested on: CCRF-CEM
SK-MEL-5 = tested on: SK-MEL-5
SW-620 = tested on: SW-620

CCOC(=O)C1=C(C)OC2(O)C=CC(O)=C3C(=O)N(c4ccccc4)C(=O)C312 (stereo not given)
GI50 (786-0): 40.5 µM (inactive)
GI50 (A549): > 100 µM (inactive)
GI50 (ACHN): 31.8 µM (inactive)
GI50 (BT-549): 31.6 µM (inactive)
GI50 (CAKI-1): 48.8 µM (inactive)
GI50 (COLO 205): 43.1 µM (inactive)
GI50 (DU-145): 36.7 µM (inactive)
GI50 (EKVX): 54 µM (inactive)
GI50 (HCC 2998): 37.3 µM (inactive)
GI50 (HCT-116): 54.8 µM (inactive)
GI50 (HCT-15): 30.6 µM
GI50 (HL-60): 29.4 µM (inactive)
GI50 (HOP-62): 53.5 µM (inactive)
GI50 (HOP-92): 21 µM (inactive)
GI50 (HT-29): 29.3 µM (inactive)
GI50 (Hs-578T): 32.9 µM (inactive)
GI50 (IGROV-1): 29 µM (inactive)
GI50 (K562): 32.7 µM (inactive)
GI50 (KM12): 38.6 µM (inactive)
GI50 (LOX IMVI): 21.8 µM (inactive)
GI50 (M14): 50.5 µM (inactive)
GI50 (MCF7): 29.6 µM (inactive)
GI50 (MDA-MB-231): 37.8 µM (inactive)
GI50 (MDA-MB-435): 37.8 µM (inactive)
GI50 (MOLT-4): 29.7 µM (inactive)
GI50 (Malme-3M): 20 µM (inactive)
GI50 (NCI-H226): 34.2 µM (inactive)
GI50 (NCI-H23): 40.8 µM (inactive)
GI50 (NCI-H460): > 100 µM (inactive)
GI50 (NCI-H522): 18.5 µM (inactive)
GI50 (NCI/ADR-RES): 42.2 µM (inactive)
GI50 (OVCAR-3): 61.9 µM (inactive)
GI50 (OVCAR-4): 31.5 µM (inactive)
GI50 (OVCAR-5): 58.5 µM (inactive)
GI50 (OVCAR-8): 52 µM (inactive)
GI50 (PC-3): 35.3 µM (inactive)
GI50 (RPMI-8226): 14.9 µM (inactive)
GI50 (RXF 393): 26.4 µM (inactive)
GI50 (SF-268): 38.7 µM (inactive)
GI50 (SF-295): > 100 µM (inactive)
GI50 (SF-539): 29.1 µM (inactive)
GI50 (SK-MEL-28): 22.5 µM (inactive)
GI50 (SK-MEL-2): 30.5 µM (inactive)
GI50 (SK-OV-3): 90.8 µM (inactive)
GI50 (SN12C): 40.7 µM (inactive)
GI50 (SNB-19): 22.8 µM (inactive)
GI50 (SNB-75): 41.8 µM (inactive)
GI50 (SR): 18.9 µM (inactive)
GI50 (T47D): 45.1 µM (inactive)
GI50 (TK-10): 37.4 µM (inactive)
GI50 (U-251): 35.7 µM (inactive)
GI50 (UACC-257): 39.1 µM (inactive)
GI50 (UACC-62): 29.9 µM (inactive)
GI50 (UO-31): 24.4 µM (inactive)

Cc1ccc(-c2[nH]c(=O)n(C3OC(CO)C(O)C(O)C3O)c(=O)c2C#N)cc1 (stereo not given)
GI50 (786-0): > 100 µM (inactive)
GI50 (A498): > 100 µM (inactive)
GI50 (A549): > 100 µM (inactive)
GI50 (ACHN): > 100 µM (inactive)
GI50 (BT-549): > 100 µM (inactive)
GI50 (CAKI-1): > 100 µM (inactive)
GI50 (CCRF-CEM): > 100 µM (inactive)
GI50 (COLO 205): > 100 µM (inactive)
GI50 (DU-145): > 100 µM (inactive)
GI50 (EKVX): > 100 µM (inactive)
GI50 (HCC 2998): > 100 µM (inactive)
GI50 (HCT-116): > 100 µM (inactive)
GI50 (HCT-15): > 100 µM
GI50 (HL-60): > 100 µM (inactive)
GI50 (HOP-62): > 100 µM (inactive)
GI50 (HOP-92): > 100 µM (inactive)
GI50 (HT-29): > 100 µM (inactive)
GI50 (Hs-578T): > 100 µM (inactive)
GI50 (IGROV-1): > 100 µM (inactive)
GI50 (K562): > 100 µM (inactive)
GI50 (KM12): > 100 µM (inactive)
GI50 (M14): > 100 µM (inactive)
GI50 (MCF7): > 100 µM (inactive)
GI50 (MDA-MB-231): > 100 µM (inactive)
GI50 (MDA-MB-435): > 100 µM (inactive)
GI50 (MOLT-4): > 100 µM (inactive)
GI50 (NCI-H226): > 100 µM (inactive)
GI50 (NCI-H23): > 100 µM (inactive)
GI50 (NCI-H460): > 100 µM (inactive)
GI50 (NCI-H522): > 100 µM (inactive)
GI50 (NCI/ADR-RES): > 100 µM (inactive)
GI50 (OVCAR-3): > 100 µM (inactive)
GI50 (OVCAR-4): > 100 µM (inactive)
GI50 (OVCAR-5): > 100 µM (inactive)
GI50 (OVCAR-8): > 100 µM (inactive)
GI50 (PC-3): > 100 µM (inactive)
GI50 (RPMI-8226): > 100 µM (inactive)
GI50 (RXF 393): > 100 µM (inactive)
GI50 (SF-268): > 100 µM (inactive)
GI50 (SF-295): > 100 µM (inactive)
GI50 (SF-539): > 100 µM (inactive)
GI50 (SK-MEL-28): > 100 µM (inactive)
GI50 (SK-MEL-2): > 100 µM (inactive)
GI50 (SK-MEL-5): > 100 µM (inactive)
GI50 (SK-OV-3): > 100 µM (inactive)
GI50 (SN12C): > 100 µM (inactive)
GI50 (SNB-19): > 100 µM (inactive)
GI50 (SNB-75): > 100 µM (inactive)
GI50 (SR): 95.3 µM (inactive)
GI50 (SW-620): > 100 µM (inactive)
GI50 (T47D): > 100 µM (inactive)
GI50 (TK-10): > 100 µM (inactive)
GI50 (U-251): > 100 µM (inactive)
GI50 (UACC-257): > 100 µM (inactive)
GI50 (UACC-62): > 100 µM (inactive)
GI50 (UO-31): > 100 µM (inactive)
